Experimental findings from article PMC12498190, “A Photocaged N‐Phosphonopiperidinone as a Selective Photo‐Cleavable DPP8/9 Inhibitor” (Chembiochem, 2025) are described below.

One assay addresses T1, human DPP4 (Homo sapiens, UniProt P27487).
T1 construct: purchased Proteros Biostructures GmbH, Germany
As to the kind of experiment: DPP4 enzyme inhibition assay, AMC release from GP-AMC. In kind it is biochemical. The source says:
We then continued to investigate the biochemical properties of the photocaged compound 5 versus the photoreleased product resembling inhibitor 1. To this end, we performed biochemical enzyme inhibition assays with DPP8 and DPP9 before and after irradiation of 5. Resulting DPP8/9 inhibition was quantified by following the DPP8‐ or DPP9‐mediated proteolysis of the fluorophore 7‐amino‐4‐methylcoumarin (AMC) from the model substrate Gly‐Pro‐AMC (Figure 1C,D and Table 1 ). To induce photocleavage of 5, reaction mixtures were irradiated for 5 min with the same green LED lamp as before, followed by a pre‐incubation of 45 min with the photoreleased inhibitor prior to substrate addition.
Enzyme activity of human DPP4, DPP8, and DPP9 (Proteros Biostructures GmbH, Germany) was determined by measuring the initial velocity of AMC release from the fluorogenic substrate GP‐AMC (Sigma Aldrich, USA) using a Tecan Spark 10 M multimode microplate reader (Tecan Group Ltd., Switzerland) in activity buffer (20 mM HEPES/KOH pH 7.3, 110 mM potassium acetate, 2 mM magnesium acetate, 0.5 mM EGTA, 0.02% Tween 20, supplemented with 1 mM DTT) and a final volume of 20 μL for maximal 30 min at 30 °C. Prior to the activity measurement, 10 nM of the corresponding enzyme was incubated for 45 min at 30 °C and gentle shaking with the indicated compounds at concentrations ranging from 0 to 100 μM, followed by irradiation with a green LED lamp (λ = 520−530 nm; Eurolite, Germany) for 5 min. The corresponding compounds were dissolved in DMSO and diluted in activity buffer (final DMSO concentration: 1%). To the inhibitor–enzyme mixture, GP‐AMC was then added to a final concentration of 250 μM, and the activity measurement was started. The resulting enzyme activity was calculated from the slope (fluorescence release over time) and plotted against the concentrations of the inhibitor. Apparent IC50 values were calculated using Graph‐Pad Prism v10.4.1 using the equation: [Inhibitor] versus response‐Variable slope (four parameters). […]

A further assay concerns the target DPP9 (Homo sapiens, UniProt Q86TI2). As to the kind of experiment: Progress-curve kinetics of covalent DPP9 inhibition (kinact, KI). In kind it is biochemical. Further details: purchased Proteros Biostructures GmbH, Germany. As to conditions: dark. The source says: As previously shown by us, 1 inhibits DPP8 and DPP9 via a covalent modification of the active site serine.^[ [31] ^] Therefore, we also measured the time dependence of this covalent modification of the target enzyme by recording progress curves for the inhibition of DPP8 and 9 and using them to calculate the corresponding binding affinity (KI), maximum enzyme inhibition rate (kinact) as well as the efficiency of covalent bond formation (kinact/KI) values for 5 after and without green light irradiation ( Figure S1 and Table S1, Supporting Information).
To calculate the reaction rate of covalent bond formation between DPP proteins and the inhibitor, kinact, KI, and kinact/KI were determined as previously described.^[ [49] ^, [50] ^] To this end, a dilution series of 5 was irradiated using a green LED lamp (λ = 520−530 nm; Eurolite, Germany) for 5 min and subsequently mixed with 250 µM GP‐AMC. The mixture was then added to 10 nM enzyme, and the resulting activity was measured for a maximum of 60 min at 30 °C. Fluorescence intensities were plotted against time and data were fitted to the following equation: [drawing 1] using Graph‐Pad Prism v10.4.1. The obtained pseudo first‐order rate constant was used to determine kinact and KI by fitting the plot of kobs against inhibitor concentration to the following equation: [drawing 2] . The efficiency of covalent bond formation (kinact/KI) was calculated by the ratio of kinact/KI. All measurements were performed in triplicate, and error bars represent standard errors of the fit.
Supplementary Figure 1. Kinetic analysis of DPP8 and DPP9 inhibition by compound 5. The pseudo-first order rate constant (kobs) was calculated from an exponential regression of progress curves and plotted against the concentration of compound 5. All measurement were performed in triplicate (n = 3 technical replicates), mean values are shown and error bars indicate the standard error of the mean (SEM). Inhibition assay was performed with DPP8 (A, B) and DPP9 (C, D) under ‘dark’ (A, C) and ‘light’ (B, D) conditions. […]

The term IC50 denotes the concentration at which inhibition is half-maximal. One may read the kinact as the rate constant of inactivation at saturating inhibitor. The term kinact/KI denotes the maximal inactivation rate divided by the concentration that gives half of it.

DPP9, sequence (Q86TI2 whole entry): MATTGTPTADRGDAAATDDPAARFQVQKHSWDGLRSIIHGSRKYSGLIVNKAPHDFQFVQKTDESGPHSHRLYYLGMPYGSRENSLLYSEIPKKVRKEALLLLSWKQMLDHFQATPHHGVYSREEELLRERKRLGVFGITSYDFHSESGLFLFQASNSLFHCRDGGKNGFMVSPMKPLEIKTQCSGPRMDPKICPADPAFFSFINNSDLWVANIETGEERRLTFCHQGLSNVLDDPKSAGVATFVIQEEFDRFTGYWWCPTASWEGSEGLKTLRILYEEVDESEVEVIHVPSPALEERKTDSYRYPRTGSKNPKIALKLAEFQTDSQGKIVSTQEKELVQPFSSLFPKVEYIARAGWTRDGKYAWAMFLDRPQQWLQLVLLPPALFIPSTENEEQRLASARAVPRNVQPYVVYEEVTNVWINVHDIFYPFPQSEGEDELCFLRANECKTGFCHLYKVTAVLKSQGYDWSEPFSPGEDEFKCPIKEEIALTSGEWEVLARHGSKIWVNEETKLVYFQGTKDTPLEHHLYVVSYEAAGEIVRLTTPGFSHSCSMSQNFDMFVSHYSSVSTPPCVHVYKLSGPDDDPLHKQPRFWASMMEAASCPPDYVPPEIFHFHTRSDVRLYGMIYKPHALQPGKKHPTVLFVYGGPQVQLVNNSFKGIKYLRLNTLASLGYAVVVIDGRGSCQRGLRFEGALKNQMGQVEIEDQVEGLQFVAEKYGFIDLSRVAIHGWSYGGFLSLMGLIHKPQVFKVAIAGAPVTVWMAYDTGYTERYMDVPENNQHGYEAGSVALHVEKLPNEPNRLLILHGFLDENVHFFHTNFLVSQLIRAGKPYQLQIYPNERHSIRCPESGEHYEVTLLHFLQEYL
T1 sequence (P27487 whole entry): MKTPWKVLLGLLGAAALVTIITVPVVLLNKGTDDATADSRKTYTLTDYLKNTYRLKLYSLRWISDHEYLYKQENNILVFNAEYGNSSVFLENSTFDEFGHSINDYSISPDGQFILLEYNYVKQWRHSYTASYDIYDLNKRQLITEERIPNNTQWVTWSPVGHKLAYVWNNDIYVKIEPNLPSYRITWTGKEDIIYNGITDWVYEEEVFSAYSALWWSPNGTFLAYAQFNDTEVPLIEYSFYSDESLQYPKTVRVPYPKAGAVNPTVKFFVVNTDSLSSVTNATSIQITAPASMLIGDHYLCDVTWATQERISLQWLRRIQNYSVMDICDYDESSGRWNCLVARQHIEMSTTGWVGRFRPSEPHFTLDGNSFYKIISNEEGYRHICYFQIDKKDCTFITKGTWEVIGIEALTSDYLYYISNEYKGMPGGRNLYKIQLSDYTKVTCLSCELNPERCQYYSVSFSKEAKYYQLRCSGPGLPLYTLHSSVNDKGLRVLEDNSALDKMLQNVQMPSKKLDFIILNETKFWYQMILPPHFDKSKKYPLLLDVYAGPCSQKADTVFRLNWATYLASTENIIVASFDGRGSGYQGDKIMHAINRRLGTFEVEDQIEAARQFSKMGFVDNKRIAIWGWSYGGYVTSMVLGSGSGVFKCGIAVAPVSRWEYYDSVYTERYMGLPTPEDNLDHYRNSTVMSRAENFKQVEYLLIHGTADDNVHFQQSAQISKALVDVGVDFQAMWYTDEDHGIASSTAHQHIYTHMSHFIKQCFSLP

As to `CCCCCc1ccc(SCCP(=O)(OCC)N2CCC[C@H](NC(=O)OCC3=C4C(C)=CC(C)=[N+]4[B-](C)(C)n4c(C)cc(C)c43)C2=O)cc1` (stereo partly drawn) [Compound 5], the IC50 on human DPP4 (DPP4, dark (without green light irradiation), 45 min pre-incubation, read-out: Apparent IC50) is greater than 100 µM. In addition, the “DPP4 inhibition (in words)” value at human DPP4 (irradiated) is listed as “not inhibited”. Besides, the “DPP4 inhibition (in words)” value on human DPP4 (non-irradiated) was “not inhibited”. Besides, on DPP9, the KI (inactivation) worked out at 32.2 µM, the kinact turned out to be 0.000464 s⁻¹ and the inactivation efficiency (kinact/KI) is 14 M⁻¹ s⁻¹.
